Key:
Assay type in all cases: in vivo
[1] = test system: green peach aphid (Myzus persicae); experiment: Myzus test; details: infested cabbage leaves dipped
Procedure: (§1) Myzus Test [table] To produce a suitable preparation of active compound, 1 part by weight of active compound is mixed with the stated amounts of solvent and emulsifier, and the concentrate is diluted with emulsifier-containing water to the desired concentration. Cabbage leaves (Brassica oleracea) which are heavily infested by the green peach aphid (Myzus persicae) are treated by being dipped into the preparation of active compound of the desired concentration. After the desired period of time, the kill in % is determined. 100% means that all aphids have been killed; 0% means that none of the aphids have been killed.

[2] = test system: cotton aphids (Aphis gossypii); experiment: Aphis gossypii test; details: active compound concentration 200 ppm, infested cotton leaves dipped
Procedure: as §1, with “Aphis Gossypii” for “Myzus”, “Cotton” for “Cabbage”, “(Gossypium hirsutuni)” for “(Brassica oleracea)”, “cotton aphids (Aphis gossypii)” for “the green peach aphid (Myzus persicae)”

Test plants [3] = experiment: Post-emergence test; details: greenhouse
Procedure: To produce a suitable preparation of active compound, 1 part by weight of active compound is mixed with the stated amount of solvent, the stated amount of emulsifier is added and the concentrate is diluted with water to the desired concentration.
Test plants of a height of 5-15 cm are sprayed with the preparation of active compounds such that the particular amounts of active compound desired are applied per unit area. The concentration of the spray liquor is chosen such that the particular amounts of active compound desired are applied in 1000 l of water/ha.
After three weeks, the degree of damage to the plants is rated in % damage in comparison to the development of the untreated control.
0%=no effect (like untreated control)

Test plants [4] = experiment: Pre-emergence test; details: greenhouse
Procedure: Pre-Emergence Test [[[…]]] To produce a suitable preparation of active compound, 1 part by weight of active compound is mixed with the stated amount of solvent, the stated amount of emulsifier is added and the concentrate is diluted with water to the desired concentration. Seeds of the test plants are sown in normal soil. After about 24 hours, the soil is sprayed with the preparation of active compound such that the particular amounts of active compound desired are applied per unit area. The concentration of the spray liquor is chosen such that the particular amounts of active compound desired are applied in 1000 l of water/ha. After three weeks, the degree of damage to the plants is rated in % damage in comparison to the development of the untreated control. The figures denote: 0%=no effect (like untreated control) 100%=total destruction

[5] = test system: white fly (Bemisia tabaci) eggs, larvae and puparia; experiment: Bemisia test; details: active compound concentration 40 ppm, infested cotton plants sprayed
Procedure: Bemisia Test [table] To produce a suitable preparation of active compound, 1 part by weight of active compound is mixed with the stated amounts of solvent and emulsifier, and the concentrate is diluted with water to the desired concentration. Cotton plants (Gossypium hirsutum) which are infested by white fly (Bemisia tabaci) eggs, larvae and puparia are sprayed with the preparation of active compound of the desired concentration. After the desired period of time, the kill in % is determined. 100% means that all animals have been killed; 0% means that none of the animals have been killed.

[6] = test system: larvae of the mustard beetle (Phaedon cochleariae); experiment: Phaedon larvae test; details: 100 ppm active compound, Phaedon cochleariae larvae on dipped cabbage leaves
Procedure: Phaedon Larvae Test [[[…]]] To produce a suitable preparation of active compound, 1 part by weight of active compound is mixed with the stated amounts of solvent and emulsifier, and the concentrate is diluted with emulsifier-containing water to the desired concentration. Cabbage leaves (Brassica oleracea) are treated by being dipped into the preparation of active compound of the desired concentration and are populated with larvae of the mustard beetle (Phaedon cochleariae) while the leaves are still moist. After the desired period of time, the kill in % is determined. 100% means that all beetle larvae have been killed; 0% means that none of the beetle larvae have been killed.

[7] = test system: green rice leaf hopper (Nephotettix cincticeps); experiment: Nephotettix test; details: rice seedlings dipped
Procedure: (§2) To produce a suitable preparation of active compound, 1 part by weight of active compound is mixed with the stated amounts of solvent and emulsifier, and the concentrate is diluted with emulsifier-containing water to the desired concentration.
Rice seedlings (Oryza satina) are treated by being dipped into the preparation of active compound of the desired concentration and are populated wraith the green rice leaf hopper (Nephotettix cincticeps) while the leafs are still moist.
After the desired period of time, the kill in % is determined. 100% means that all leaf hoppers have been killed; 0% means that none of the leaf hoppers have been killed.

[8] = test system: greenhouse red spider mite (Tetranychus urticae); experiment: Tetranychus test (OP-resistant/dip treatment); details: 1.6 ppm active compound, Tetranychus urticae on dipped bean plants
Procedure: Tetranychus Test (OP-Resistant/Dip Treatment)
as §2
Bean plants (Phaseolus vulgaris) which are heavily infested by all stages of the greenhouse red spider mite (Tetranychus urticae) are dipped into a preparation of active compound of the desired concentration.
After the desired period of time, the effect in % is determined. 100% means that all spider mites have been killed; 0% means that none of the spider mites have been killed.

[9] = active compound concentration 8 ppm

Q: With CCc1cc(Cl)cc(Cl)c1C1=C(O)C2(CCC(C)CC2)NC1=O (single isomer, unassigned) [Ex. I-a-2] as the molecule, how does the “Kill rate in % after 6^d” value [1, 9] read?
A: The value was 95%.

Q: What about the “Kill rate in % after 6^d” value [2] of the same molecule?
A: The value was 90%.

Q: What about the “% damage, Bromus” value (Test plants [3]; 125 g of a.i./ha) of the same molecule?
A: Its value is 90%.

Q: And the “% damage, Echinochloa” value (Test plants [3]; 125 g of a.i./ha)?
A: The value was 100%.

Q: And the “% damage, Lolium” value (Test plants [3]; 125 g of a.i./ha)?
A: The value was 100%.

Q: What about the “% damage, Sorghum” value (Test plants [3]; 125 g of a.i./ha) of the same molecule?
A: Its value is 100%.

Q: And the “% damage, cotton” value (Test plants [3]; 125 g of a.i./ha, cotton)?
A: Its value is 0%.

Q: Which results are given for CCc1cc(Cl)cc(Cl)c1C1=C(O)C2(CCC(OC)CC2)NC1=O (single isomer, unassigned) [Ex. I-a-3]?
A: % damage, Alopecurus (Test plants [4]; 30 g of a.i./ha): 100%; % damage, Avena fatua (Test plants [4]; 30 g of a.i./ha): 70%; % damage, Digitaria (Test plants [4]; 30 g of a.i./ha): 100%; % damage, Lolium (Test plants [4]; 30 g of a.i./ha): 100%; % damage, Setaria (Test plants [4]; 30 g of a.i./ha, Setaria): 100%; % damage, cotton (Test plants [4]; 30 g of a.i./ha, cotton): 0%; % damage, sugar beet (Test plants [4]; 30 g of a.i./ha, sugar beet): 0%; Kill rate in % after 6^d [1, 9]: 85%; % damage, Alopecurus (Test plants [3]; 250 g of a.i./ha): 100%; % damage, Avena fatua (Test plants [3]; 250 g of a.i./ha): 100%; % damage, Sinapis (Test plants [3]; 250 g of a.i./ha): 80%

Q: What does the source list for CCc1cc(Br)cc(Cl)c1C1=C(O)C2(CCC(C)CC2)NC1=O (single isomer, unassigned) [Ex. I-a-6]?
A: % damage, Avena fatua (Test plants [4]; 60 g of a.i./ha): 90%; % damage, Echinochloa (Test plants [4]; 60 g of a.i./ha): 100%; % damage, Lolium (Test plants [4]; 60 g of a.i./ha): 95%; % damage, Veronica (Test plants [4]; 60 g of a.i./ha, Veronica): 100%; % damage, soybean (Test plants [4]; 60 g of a.i./ha): 0%; % damage, wheat (Test plants [4]; 60 g of a.i./ha, wheat): 0%; % damage, Abutilon (Test plants [3]; 60 g of a.i./ha): 70%; % damage, Echinochloa (Test plants [3]; 60 g of a.i./ha): 95%; % damage, Lolium (Test plants [3]; 60 g of a.i./ha): 90%; % damage, Setaria (Test plants [3]; 60 g of a.i./ha): 100%; % damage, Sorghum (Test plants [3]; 60 g of a.i./ha): 90%

Q: For CCc1cc(Br)cc(Cl)c1C1=C(O)C2(CCC(OC)CC2)NC1=O (single isomer, unassigned) [Ex. I-a-7], which “% damage, Avena fatua” value (Test plants [4]; 125 g of a.i./ha) is on record?
A: The value was 95%.

Q: And the “% damage, Bromus” value (Test plants [4]; 125 g of a.i./ha)?
A: Its value is 100%.

Q: And the “% damage, Echinochloa” value (Test plants [4]; 125 g of a.i./ha)?
A: The value was 100%.

Q: What about the “% damage, Matricaria” value (Test plants [4]; 125 g of a.i./ha, Matricaria) of the same molecule?
A: Its value is 80%.

Q: And the “Kill rate in % after 6^d” value ([1]; active compound concentration 1.6 ppm)?
A: The value was 65%.

Q: And the “% damage, Abutilon” value (Test plants [3]; 250 g of a.i./ha)?
A: The value was 80%.

Q: What about the “% damage, Amaranthus” value (Test plants [3]; 250 g of a.i./ha, Amaranthus) of the same molecule?
A: The value was 70%.

Q: What about the “% damage, Cyperus” value (Test plants [3]; 250 g of a.i./ha, Cyperus) of the same molecule?
A: Its value is 80%.

Q: And the “% damage, sugar beet” value (Test plants [3]; 250 g of a.i./ha)?
A: Its value is 0%.

Q: For CCc1cc(Cl)cc(Br)c1C1=C(O)C2(CCC(OC)CC2)NC1=O (single isomer, unassigned) [Ex. I-a-10], which “% damage, Alopecurus” value (Test plants [4]; 125 g of a.i./ha) is on record?
A: The value was 100%.

Q: And the “% damage, Avena fatua” value (Test plants [4]; 125 g of a.i./ha)?
A: Its value is 90%.

Q: What about the “% damage, Bromus” value (Test plants [4]; 125 g of a.i./ha) of the same molecule?
A: Its value is 90%.

Q: What about the “% damage, Digitaria” value (Test plants [4]; 125 g of a.i./ha) of the same molecule?
A: The value was 100%.

Q: What about the “% damage, soybean” value (Test plants [4]; 125 g of a.i./ha) of the same molecule?
A: The value was 0%.

Q: And the “% damage, Alopecurus” value (Test plants [3]; 30 g of a.i./ha)?
A: Its value is 95%.

Q: What about the “% damage, Avena fatua” value (Test plants [3]; 30 g of a.i./ha) of the same molecule?
A: The value was 95%.

Q: What about the “% damage, Bromus” value (Test plants [3]; 30 g of a.i./ha) of the same molecule?
A: The value was 90%.

Q: What about the “% damage, Digitaria” value (Test plants [3]; 30 g of a.i./ha, Digitaria) of the same molecule?
A: Its value is 100%.

Q: What about the “% damage, Lolium” value (Test plants [3]; 30 g of a.i./ha) of the same molecule?
A: Its value is 95%.

Q: And the “% damage, Setaria” value (Test plants [3]; 30 g of a.i./ha)?
A: The value was 100%.

Q: What about the “% damage, sugar beet” value (Test plants [3]; 30 g of a.i./ha) of the same molecule?
A: The value was 0%.

Q: CCc1cc(Br)cc(Cl)c1C1=C(OC(=O)C(C)C)C2(CCC(C)CC2)NC1=O (single isomer, unassigned) [Ex. I-b-2] was tested. Which “% damage, Digitaria” value (Test plants [4]; 30 g of a.i./ha) did it give?
A: The value was 70%.

Q: And the “% damage, Echinochloa” value (Test plants [4]; 30 g of a.i./ha)?
A: The value was 70%.

Q: What about the “% damage, Lolium” value (Test plants [4]; 30 g of a.i./ha) of the same molecule?
A: The value was 95%.

Q: And the “% damage, corn” value (Test plants [4]; 30 g of a.i./ha, corn)?
A: The value was 0%.

Q: What about the “% damage, soybean” value (Test plants [4]; 30 g of a.i./ha) of the same molecule?
A: Its value is 0%.

Q: What about the “Kill rate in % after 10^d” value [5] of the same molecule?
A: Its value is 100%.

Q: Which “Kill rate in % after 7d” value [6] does the source give for CCOCC(=O)OC1=C(c2c(Cl)cc(Br)cc2CC)C(=O)NC12CCC(C)CC2 (single isomer, unassigned) [Ex. I-b-3] here?
A: Its value is 100%.

Q: And the “Kill rate in % after 6^d” value ([7]; active compound concentration 0.1 ppm)?
A: Its value is 40%.

Q: Which “% damage, Alopecurus” value (Test plants [3]; 250 g of a.i./ha) does the source give for CCc1cc(Cl)cc(Cl)c1C1=C(O)C2(CCOCC2)NC1=O [Ex. I-a-5] here?
A: Its value is 95%.

Q: And the “% damage, Avena fatua” value (Test plants [3]; 250 g of a.i./ha)?
A: The value was 100%.

Q: And the “% damage, Setaria” value (Test plants [3]; 250 g of a.i./ha)?
A: The value was 100%.

Q: And the “% damage, Sinapis” value (Test plants [3]; 250 g of a.i./ha)?
A: Its value is 70%.

Q: With CCc1cc(Cl)cc(Br)c1C1=C(O)C(C)(C)NC1=O [Ex. I-a-11] as the molecule, how does the “Kill rate in % after 14d” value [8] read?
A: Its value is 80%.

Q: And the “% damage, Alopecurus” value (Test plants [3]; 250 g of a.i./ha)?
A: Its value is 100%.

Q: What about the “% damage, Setaria” value (Test plants [3]; 250 g of a.i./ha) of the same molecule?
A: The value was 100%.

Q: And the “% damage, sugar beet” value (Test plants [3]; 250 g of a.i./ha)?
A: The value was 0%.

Q: And the “Kill rate in % after 6^d” value ([7]; active compound concentration 10 ppm)?
A: Its value is 100%.

— patent US20060160847A1, “2,4-Dihalogen-6-(c2-c3alkyl)-phenyl substituted tetramic acid derivatives” (priority 2003, published 2006)
